Source: patent US10357493B2, “Metalloenzyme inhibitor compounds” (Selenity Therapeutics (Bermuda), Ltd., priority 2017, dated 2019)

How the values were obtained:
HDAC6 = HDAC6 (Homo sapiens (Human), UniProt Q9UBN7); experiment: HDAC6 enzymatic assay; type: biochemical; conditions: read-out: Human HDAC6 IC50
Procedure, shortened: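 Following a 17 hour room-temperature incubation of 2 ng HDAC6 with 10 uM substrate and compound, 50 μl developer was added for another 20 minutes, and fluorescence (excitation 360 nm, emission 460 nm) was recorded. Activity was normalized to no-compound (100%) and no-enzyme (0%) wells, and IC50 came from sigmoidal dose-response fitting in Graphpad Prism.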

HDAC1 = HDAC1 (Homo sapiens (Human), UniProt Q13547); experiment: HDAC1 enzymatic assay; type: biochemical; conditions: read-out: Human HDAC1 IC50
HDAC1, sequence (Q13547 whole entry): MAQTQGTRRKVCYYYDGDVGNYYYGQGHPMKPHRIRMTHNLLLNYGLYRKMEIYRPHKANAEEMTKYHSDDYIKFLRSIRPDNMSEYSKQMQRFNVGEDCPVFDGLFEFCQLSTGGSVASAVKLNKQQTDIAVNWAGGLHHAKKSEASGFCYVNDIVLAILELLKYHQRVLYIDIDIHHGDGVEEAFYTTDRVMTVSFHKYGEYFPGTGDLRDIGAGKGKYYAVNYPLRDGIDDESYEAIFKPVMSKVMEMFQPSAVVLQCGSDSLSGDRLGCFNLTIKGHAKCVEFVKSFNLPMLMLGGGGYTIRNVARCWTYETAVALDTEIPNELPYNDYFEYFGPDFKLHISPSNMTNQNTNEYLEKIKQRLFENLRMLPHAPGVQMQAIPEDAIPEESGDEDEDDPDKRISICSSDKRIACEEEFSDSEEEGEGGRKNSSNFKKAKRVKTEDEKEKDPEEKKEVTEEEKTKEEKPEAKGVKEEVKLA
Procedure, shortened: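 Compound inhibition of human HDAC1 (0.5 ng enzyme, 10 uM substrate) was assessed by fluorescence after developer treatment, excitation 360 nm and emission 460 nm. Percent activity was normalized to no-compound (100%) and no-enzyme (0%) controls, plotted against concentration, and fitted to a sigmoidal dose-response curve in Graphpad Prism to obtain IC50 at half-maximal activity.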

HDAC6, sequence (Q9UBN7 whole entry): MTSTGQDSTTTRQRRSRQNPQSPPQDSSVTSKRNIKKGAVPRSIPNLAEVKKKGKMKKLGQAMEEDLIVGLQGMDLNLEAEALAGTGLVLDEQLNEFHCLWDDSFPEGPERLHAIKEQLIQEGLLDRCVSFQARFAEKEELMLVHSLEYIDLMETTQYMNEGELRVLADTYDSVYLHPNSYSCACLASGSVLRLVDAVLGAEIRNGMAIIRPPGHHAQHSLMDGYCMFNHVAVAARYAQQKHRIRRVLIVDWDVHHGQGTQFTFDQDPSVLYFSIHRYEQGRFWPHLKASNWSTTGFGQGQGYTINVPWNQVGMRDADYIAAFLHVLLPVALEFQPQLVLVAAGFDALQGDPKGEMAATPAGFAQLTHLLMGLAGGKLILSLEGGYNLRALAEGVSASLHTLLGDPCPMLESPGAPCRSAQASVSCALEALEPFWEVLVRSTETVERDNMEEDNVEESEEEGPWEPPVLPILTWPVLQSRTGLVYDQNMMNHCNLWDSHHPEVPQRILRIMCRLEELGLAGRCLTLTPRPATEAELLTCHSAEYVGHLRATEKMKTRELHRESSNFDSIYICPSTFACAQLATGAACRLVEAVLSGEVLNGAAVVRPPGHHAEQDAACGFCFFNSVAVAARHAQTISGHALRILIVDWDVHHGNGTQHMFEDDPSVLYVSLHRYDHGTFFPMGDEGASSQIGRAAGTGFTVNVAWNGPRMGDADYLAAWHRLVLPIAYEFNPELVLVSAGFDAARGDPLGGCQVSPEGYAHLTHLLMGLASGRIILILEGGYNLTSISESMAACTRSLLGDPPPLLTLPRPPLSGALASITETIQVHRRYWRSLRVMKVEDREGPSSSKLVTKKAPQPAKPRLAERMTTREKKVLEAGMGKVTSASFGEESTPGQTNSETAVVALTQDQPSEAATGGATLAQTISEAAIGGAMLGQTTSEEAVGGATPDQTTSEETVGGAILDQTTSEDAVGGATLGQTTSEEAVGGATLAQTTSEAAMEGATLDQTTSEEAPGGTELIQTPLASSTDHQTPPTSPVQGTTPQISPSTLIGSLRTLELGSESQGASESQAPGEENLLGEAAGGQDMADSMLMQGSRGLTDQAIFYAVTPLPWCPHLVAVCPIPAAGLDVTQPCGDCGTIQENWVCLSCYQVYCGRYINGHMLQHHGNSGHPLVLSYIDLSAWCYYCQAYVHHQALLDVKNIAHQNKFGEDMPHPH

| SMILES | IC50 (HDAC6) [nM] | IC50 (HDAC1) [nM] |
| --- | --- | --- |
| Cc1cccc(C2(Nc3ncc(-c4nnc(C(F)F)o4)cn3)CC2)c1Cl [Example 77, N-(1-(2-chloro-3-methylphenyl)cyclopropyl)-5-(5-(difluoromethyl)-1,3,4-oxadiazol-2-yl)pyrimidin-2-amine] | 28 | > 30000 |
| FC(F)c1nnc(-c2cnc(NC3(c4ccnc(Br)c4)CC3)nc2)o1 [Example 82, N-(1-(2-bromopyridin-4-yl)cyclopropyl)-5-(5-(difluoromethyl)-1,3,4-oxadiazol-2-yl)pyrimidin-2-amine] | 35 | > 30000 |
| Fc1ccc(Cl)c(C2(Nc3ncc(-c4nnc(C(F)F)o4)cn3)CC2)c1 [Example 80, N-(1-(2-chloro-5-fluorophenyl)cyclopropyl)-5-(5-(difluoromethyl)-1,3,4-oxadiazol-2-yl)pyrimidin-2-amine] | 23 | > 30000 |
| CN(CC(Nc1ncc(-c2nnc(C(F)F)o2)cn1)c1ccc(OC(F)F)cc1F)S(=O)(=O)C1CC1 (stereo not drawn) [151(+), N-(2-(4-(difluoromethoxy)-2-fluorophenyl)-2-((5-(5-(difluoromethyl)-1,3,4-oxadiazol-2-yl)pyrimidin-2-yl)amino)ethyl)-N-methylcyclopropanesulfonamide] | 85 | > 30000 |
| CS(=O)(=O)NCC(Nc1ncc(-c2nnc(C(F)F)o2)cn1)c1ccc(F)c(F)c1 (single isomer, unassigned) [171(−), N-(2-((5-(5-(difluoromethyl)-1,3,4-oxadiazol-2-yl)pyrimidin-2-yl)amino)-2-(3,4-difluorophenyl)ethyl)methanesulfonamide] | 590 | > 30000 |
| Fc1ccc2c(c1)CCC2Nc1ncc(-c2nnc(C(F)F)o2)cn1 (stereo not shown) [Example 29, 5-(5-(difluoromethyl)-1,3,4-oxadiazol-2-yl)-N-(5-fluoro-2,3-dihydro-1H-inden-1-yl)pyrimidin-2-amine] | 450 | > 30000 |
| CS(=O)(=O)Nc1cccc(C(Nc2ncc(-c3nnc(C(F)F)o3)cn2)c2ccc(F)cc2)c1 (stereo not shown) [Example 128, N-(3-(((5-(5-(difluoromethyl)-1,3,4-oxadiazol-2-yl)pyrimidin-2-yl)amino)(4-fluorophenyl)methyl)phenyl)methanesulfonamide] | 130 | > 30000 |
| Fc1c(Cl)cccc1C1(Nc2ncc(-c3nnc(C(F)F)o3)cn2)CC1 [Example 73, N-(1-(3-chloro-2-fluorophenyl)cyclopropyl)-5-(5-(difluoromethyl)-1,3,4-oxadiazol-2-yl)pyrimidin-2-amine] | 17 | > 30000 |
| CS(=O)(=O)N(CC(Nc1ncc(-c2nnc(C(F)F)o2)cn1)c1ccc(F)c(F)c1)CC(F)(F)F (single isomer, unassigned) [172(B), N-(2-((5-(5-(difluoromethyl)-1,3,4-oxadiazol-2-yl)pyrimidin-2-yl)amino)-2-(3,4-difluorophenyl)ethyl)-N-(2,2,2-trifluoroethyl)methanesulfonamide] | 86 | > 30000 |
| O=C(Nc1ccccc1)C(Nc1ncc(-c2nnc(C(F)F)o2)cn1)c1ccc(F)cc1 (stereo not shown) [Example 35, 2-((5-(5-(difluoromethyl)-1,3,4-oxadiazol-2-yl)pyrimidin-2-yl)amino)-2-(4-fluorophenyl)-N-phenylacetamide] | 170 | > 30000 |
| O=S(=O)(C1CC1)N(CC(Nc1ncc(-c2nnc(C(F)F)o2)cn1)c1ccc(F)cc1)CC(F)(F)F (single isomer, unassigned) [165(−), N-(2-((5-(5-(difluoromethyl)-1,3,4-oxadiazol-2-yl)pyrimidin-2-yl)amino)-2-(4-fluorophenyl)ethyl)-N-(2,2,2-trifluoroethyl)cyclopropanesulfonamide] | 160 | > 30000 |
| FC(F)c1nnc(-c2cnc(NC3(c4ccc(OCC(F)(F)F)cc4)CC3)nc2)o1 [Example 68, 5-(5-(difluoromethyl)-1,3,4-oxadiazol-2-yl)-N-(1-(4-(2,2,2-trifluoroethoxy)phenyl)cyclopropyl) pyrimidin-2-amine] | 100 | > 30000 |
| Fc1ccc(F)c(C2(Nc3ncc(-c4nnc(C(F)F)o4)cn3)CC2)c1 [Example 61, 5-(5-(difluoromethyl)-1,3,4-oxadiazol-2-yl)-N-(1-(2,5-difluorophenyl)cyclopropyl) pyrimidin-2-amine] | 22 | > 30000 |
| CS(=O)(=O)N(CC(Nc1ncc(-c2nnc(C(F)F)o2)cn1)c1ccc(F)cc1)CC(F)(F)F (stereo not shown) [Example 118, N-(2-((5-(5-(difluoromethyl)-1,3,4-oxadiazol-2-yl)pyrimidin-2-yl)amino)-2-(4-fluorophenyl)ethyl)-N-(2,2,2-trifluoroethyl)methanesulfonamide] | 72 | > 30000 |

More lines, now with the values ahead:

| IC50 (HDAC6) [nM] | IC50 (HDAC1) [nM] | SMILES |
| --- | --- | --- |
| 58 | > 30000 | CS(=O)(=O)Nc1ccccc1CC(Nc1ncc(-c2nnc(C(F)F)o2)cn1)c1ccc(F)cc1 (stereo not shown) [Example 131, N-(2-(2-((5-(5-(difluoromethyl)-1,3,4-oxadiazol-2-yl)pyrimidin-2-yl)amino)-2-(4-fluorophenyl)ethyl)phenyl)methanesulfonamide] |
| > 1000 | > 30000 | N#Cc1ccc(C2(Nc3ncc(-c4nnc(C(F)F)o4)cn3)CC2)cn1 [Example 25, 5-(1-((5-(5-(difluoromethyl)-1,3,4-oxadiazol-2-yl)pyrimidin-2-yl)amino)cyclopropyl)picolinonitrile] |
| > 1000 | > 30000 | C[C@H](Nc1ncc(-c2nnc(C(F)F)o2)cn1)c1ccc(F)cc1F [Example 99-S] |
| 33 | > 30000 | CCS(=O)(=O)NCC(Nc1ncc(-c2nnc(C(F)F)o2)cn1)c1ccc(F)cc1F (single isomer, unassigned) [139(+), N-(2-((5-(5-(difluoromethyl)-1,3,4-oxadiazol-2-yl)pyrimidin-2-yl)amino)-2-(2,4-difluorophenyl)ethyl)ethanesulfonamide] |
| 320 | > 30000 | CS(=O)(=O)N(CC(Nc1ncc(-c2nnc(C(F)F)o2)cn1)c1ccc(F)c(F)c1)CC(F)(F)F (single isomer, unassigned) [172(A), N-(2-((5-(5-(difluoromethyl)-1,3,4-oxadiazol-2-yl)pyrimidin-2-yl)amino)-2-(3,4-difluorophenyl)ethyl)-N-(2,2,2-trifluoroethyl)methanesulfonamide] |
| 690 | > 30000 | CC(=O)N(CC(Nc1ncc(-c2nnc(C(F)F)o2)cn1)c1ccc(F)cc1)CC(F)(F)F (single isomer, unassigned) [167(−), N-(2-((5-(5-(difluoromethyl)-1,3,4-oxadiazol-2-yl)pyrimidin-2-yl)amino)-2-(4-fluorophenyl)ethyl)-N-(2,2,2-trifluoroethyl)acetamide] |
| 59 | > 30000 | FC(F)Oc1ccc(C2(Nc3ncc(-c4nnc(C(F)F)o4)cn3)CC2)cc1 [Example 32, N-(1-(4-(difluoromethoxy)phenyl)cyclopropyl)-5-(5-(difluoromethyl)-1,3,4-oxadiazol-2-yl)pyrimidin-2-amine] |
| 16 | > 30000 | FC(F)c1nnc(-c2cnc(NC3(c4cccc(C(F)(F)F)c4)CC3)nc2)o1 [Example 49, 5-(5-(difluoromethyl)-1,3,4-oxadiazol-2-yl)-N-(1-(3-(trifluoromethyl)phenyl)cyclopropyl) pyrimidin-2-amine] |
| 6 | > 100000 | Fc1ccccc1C1(Nc2ncc(-c3nnc(C(F)F)o3)cn2)CC1 [Example 56, 5-(5-(difluoromethyl)-1,3,4-oxadiazol-2-yl)-N-(1-(2-fluorophenyl)cyclopropyl)pyrimidin-2-amine] |
| 100 | > 30000 | Fc1cc(OC(F)(F)F)ccc1C1(Nc2ncc(-c3nnc(C(F)F)o3)cn2)CC1 [Example 70, 5-(5-(difluoromethyl)-1,3,4-oxadiazol-2-yl)-N-(1-(2-fluoro-4-(trifluoromethoxy)phenyl)cyclopropyl)pyrimidin-2-amine] |
| 22 | > 30000 | Fc1ccc(C(CC(F)(F)F)Nc2ncc(-c3nnc(C(F)F)o3)cn2)c(F)c1 (single isomer, unassigned) [101(+)] |
| 130 | > 30000 | CCS(=O)(=O)N(CC(Nc1ncc(-c2nnc(C(F)F)o2)cn1)c1ccc(F)cc1F)CC(F)(F)F (stereo not drawn) [141(+), N-(2-((5-(5-(difluoromethyl)-1,3,4-oxadiazol-2-yl)pyrimidin-2-yl)amino)-2-(2,4-difluorophenyl)ethyl)-N-(2,2,2-trifluoroethyl)ethanesulfonamide] |
| 550 | > 30000 | Fc1ccc(C(CC(F)(F)F)Nc2ncc(-c3nnc(C(F)F)o3)cn2)cc1 (single isomer, unassigned; (-)) [13(−), (−)-5-(5-(difluoromethyl)-1,3,4-oxadiazol-2-yl)-N-(3,3,3-trifluoro-1-(4-fluorophenyl)propyl)pyrimidin-2-amine] |
| 15 | > 100000 | Fc1cccc(C2(Nc3ncc(-c4nnc(C(F)F)o4)cn3)CC2)c1 [Example 57, 5-(5-(difluoromethyl)-1,3,4-oxadiazol-2-yl)-N-(1-(3-fluorophenyl)cyclopropyl)pyrimidin-2-amine] |
| 50 | > 30000 | O=S(=O)(NCC(Nc1ncc(-c2nnc(C(F)F)o2)cn1)c1ccc(F)cc1)c1ccccc1 (stereo not shown) [Example 39, N-(2-((5-(5-(difluoromethyl)-1,3,4-oxadiazol-2-yl)pyrimidin-2-yl)amino)-2-(4-fluorophenyl)ethyl)benzenesulfonamide] |
